Results on 16 compounds are retold here after patent publication US20070197538A1, “Anti-vascular and anti-proliferation methods, therapies, and combinations employing specific tyrosine kinase inhibitors” (priority 2004, published 2007).

As usually defined, the melting point is the temperature of the solid-liquid transition.

Where a name gives a salt, the structure may show the parent alone.

Data set [1] relates to Mouse endothelial cells from pancreas. Kind of data set: sensitivity of pancreas endothelial cells to Taxotere cytotoxicity. The format is cell-based. The settings on record: with Taxotere; for sensitivity of endothelial cells to cytotoxicity mediated by Taxotere: cells at 33° C. How it is done: Mouse endothelial cells from pancreas are maintained in culture at a temperature 33° C. where they are actively dividing.

Data set [2] has as its system L3.6 pL pancreatic tumor. Nature of the data set: orthotopic human pancreatic cancer L3.6 pL in nude mice. The format is in vivo. The settings on record: combination with Taxotere; for survival rate: 4-6 weeks; for effect of the combination in cancer refractory to chemotherapy: tumor cells resistant to Taxotere (MDR cells). Here is the method:
A pancreatic tumor which is shown to upregulate expression of PDGF AA, BB, A/B at metastatic sites is used for the in vivo studies. Other tumor systems that are known to upregulate expression of PDGF may also be used such as ovarian cancer, prostate cancer, bone metastasis, or breast cancer bone metastasis.
Tumor cells L3.6 pL derived from pancreatic cancer are injected into the pancreas of nude mice. The tumors are grown into detectable lesions.
Two days later, the mice are killed and the organs with and without tumors harvested, fixed, and immunostained to evaluate expression of PDGF AA, BB, A/B, PDGF-R (α,β) and status of phosphorylation of PDGF-R (α,β) on tumor cells and organ-specific endothelial cells.
The surviving mice are then killed and the size of tumor and metastasis is measured. Fixation of the tissues and staining of the tumor cells are performed. Endothelial cells are examined for division (PCNA), apoptosis (TUNEL), CD31 (endothelial cells). Expression of PDGF AA, BB, A/B, and phosphorylation of PDGF-Rα/β are further studied in these endothelial cells.

For data set [3], the system named is MV4;11 cells. Nature of the data set: intravenous MV4;11 leukemia model in NOD-SCID mice. The format is in vivo. The settings on record: for large infiltrating cells with mitotic figures in bone marrow: H&E-stained sections; for large infiltrating cells with mitotic figures in bone marrow / CD45 positive cells in bone marrow: oral 50-200 mg/kg; for CD45 positive cells in bone marrow: flow cytometry; for survival: oral, 50-200 mg/kg, once daily or 3 times per week. How it is done: In a subset of animals, bone marrow cell suspensions are prepared by flushing mouse femurs with cold sterile PBS, at experimental timepoints (within 90 days of implantation).
(In general: Flow cytometry measures light scatter and fluorescence of single cells or particles in a stream.)

For data set [4], the target named is T1, Lck (Homo sapiens, UniProt P06239).
T1 construct: host or cells: baculovirus system
T1 sequence (P06239 whole entry): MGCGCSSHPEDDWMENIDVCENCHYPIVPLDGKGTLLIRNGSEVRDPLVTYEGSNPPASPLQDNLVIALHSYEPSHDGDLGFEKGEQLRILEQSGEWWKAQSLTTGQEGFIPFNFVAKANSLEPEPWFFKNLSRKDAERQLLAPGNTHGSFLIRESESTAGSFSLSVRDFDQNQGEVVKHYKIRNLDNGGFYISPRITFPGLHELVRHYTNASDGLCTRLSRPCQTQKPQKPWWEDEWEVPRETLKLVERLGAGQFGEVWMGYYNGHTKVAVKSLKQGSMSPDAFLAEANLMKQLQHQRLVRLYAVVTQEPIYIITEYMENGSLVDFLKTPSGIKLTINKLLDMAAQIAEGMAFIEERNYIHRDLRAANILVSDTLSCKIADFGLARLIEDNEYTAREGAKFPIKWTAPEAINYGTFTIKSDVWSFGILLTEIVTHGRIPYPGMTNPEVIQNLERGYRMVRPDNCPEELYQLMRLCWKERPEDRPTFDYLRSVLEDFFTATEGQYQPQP
The settings on record: literature; cited from earlier work.

The target in data set [5] is FYN (Homo sapiens, UniProt P06241). The settings on record: literature; cited from earlier work.
Chain of FYN (P06241 whole entry, species assumed): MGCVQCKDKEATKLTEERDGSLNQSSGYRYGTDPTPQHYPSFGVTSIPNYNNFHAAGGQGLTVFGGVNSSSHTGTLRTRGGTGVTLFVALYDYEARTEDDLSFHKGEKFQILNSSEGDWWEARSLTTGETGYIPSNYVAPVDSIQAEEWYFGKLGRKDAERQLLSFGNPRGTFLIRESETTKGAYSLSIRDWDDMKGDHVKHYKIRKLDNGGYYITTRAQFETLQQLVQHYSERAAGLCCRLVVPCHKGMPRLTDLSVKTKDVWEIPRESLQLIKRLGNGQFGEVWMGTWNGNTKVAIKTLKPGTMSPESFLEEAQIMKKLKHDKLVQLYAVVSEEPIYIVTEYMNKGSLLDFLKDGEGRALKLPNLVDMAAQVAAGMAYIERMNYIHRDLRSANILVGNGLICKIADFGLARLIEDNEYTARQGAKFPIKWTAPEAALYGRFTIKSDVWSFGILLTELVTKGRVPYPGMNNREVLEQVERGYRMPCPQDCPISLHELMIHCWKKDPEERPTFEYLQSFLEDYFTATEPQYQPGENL
Data set [6] relates to RS4-11 cells (FLT3-wild type). Nature of the data set: RS4-11 cell growth, luminescence assay at 72 hours. The format is cell-based, human. The settings on record: with or without 100 ng/mL FLT3 ligand, FIGS. 5 and 6.
Data set [7] relates to AML193 cells (wild type FLT3). Kind of data set: AML193 cell growth, luminescence assay at 72 hours. The settings on record: with or without 100 ng/mL FLT3 ligand, GN963 at concentrations used (30 μM), FIGS. 3 and 4.
For data set [8], the system named is blastic phase chronic myelogenous leukemia (CML). The settings on record: two trials, total of 304 patients; cited from earlier work.
In data set [9] the test system is accelerated phase CML. The settings on record: at 24 months; cited from earlier work.

Consider `c1ccc(Nc2cnc3cc(O[C@@H]4CCOC4)ccc3n2)cc1` [Example 5, Phenyl-[6-(tetrahydrofuran-3-(R)-yl-oxy)quinoxalin-2-yl]amine], for which the melting point lay in the range of 173 to 175 °C.
`COc1cc2ncc(N[C@@H]3C[C@H]4CC[C@@H]3C4)nc2cc1OC` [Example 25, (1R,2R,4S)-(+)-Bicyclo[2.2.1]hept-2-yl-(6,7-dimethoxyquinoxalin-2-yl)-amine] yielded a melting point of 184 to 186 °C.
Same read-out and setting: to `COc1cc2ncc(OC3CC4CC3C(O)C4O)nc2cc1OC` (centres unmarked) [Example 17, 5-(6,7-Dimethoxyquinoxalin-2-yloxy)-bicyclo [2.2.1]heptane-2,3-diol] belongs 85 to 88 °C.
Compound `COc1cc2ncc(OC3CCCCC3)nc2cc1OC1CCCCC1` [Example 6, 2,7-Bis-cyclohexyloxy-6-methoxy-quinoxaline] registered a melting point of 75 to 78 °C.
Same read-out and setting: the same measure for `COc1cc2ncc(N[C@H]3CC[C@H](OC(C)=O)CC3)nc2cc1OC` [Example 21, Acetic acid trans-4-(6,7-dimethoxyquinoxalin-2-ylamino)-cyclohexyl ester]: 176 to 177 °C.
Still for that read-out and setting: the same measure for `COc1cc2ncc(OC3CCC(OC(=O)N(C)C)CC3)nc2cc1OC` (centres unmarked) [Example 19, Dimethyl-carbamic acid 4-(6,7-dimethoxyquinoxalin-2-yloxy)-cyclohexyl ester]: 152 to 155 °C.
On to `COc1cc2ncc(N[C@@H]3C[C@@H]4C[C@H]3C[C@H]4O)nc2cc1OC` [GN804, (1S,2R,4S,5R)-5-(6,7-Dimethoxyquinoxalin-2-ylamino)-Bicyclo[2.2.1]heptan-2-ol], for which, in data set [1], the “resistance of organ-specific endothelial cells to Taxotere increased by pancreatic tumor-conditioned medium” value is on record as “reversal of this increased resistance” and the “sensitivity of endothelial cells to cytotoxicity mediated by Taxotere” value is “increases sensitivity of endothelial cells to cytotoxicity mediated by Taxotere”. Further, in data set [2], the survival rate result is “higher survival rate” and the “effect of the combination in cancer refractory to chemotherapy” value is “synergistic effect”. For the same compound, in data set [3], the “large infiltrating cells with mitotic figures in bone marrow” value is reported as “reduced numbers of large infiltrating cells with mitotic figures”, the “CD45 positive cells in bone marrow” value is “reduced numbers of CD45 positive cells” and the survival entry is recorded as “prolonged survival”.
Compound `COc1cc2cc(NCC(C)(C)CO)cnc2cc1OC` [Example 9, 3-(6,7-Dimethoxyquinolin-3-yl-amino)-2,2-dimethyl-propan-1-ol] displayed a melting point of 170 to 173.5 °C.
The same measure, in the same setting: to `Oc1ccc2nc(Nc3ccccc3)cnc2c1` [Example 4, 2-Anilino-6-quinoxalinol] belongs 211 to 213 °C.
Still for that read-out and setting: the same measure for `COc1cc2ncc(CNC3CCCCC3)nc2cc1OC` (as salt: HCl) [Example 7, Cyclohexyl-(6,7-dimethoxyquinoxalin-2-ylmethyl)-amine]: 185 to 190 °C (dec.).
With `Cc1ccc(-c2nn(C(C)(C)C)c3ncnc(N)c23)cc1` [PP1], the LCK inhibitory potency result in data set [4] is “low nanomolar potency”. For the same compound, the FYN inhibitory potency entry in data set [5] is listed as “low nanomolar potency”.
Take `CN[C@@H]1C[C@H]2O[C@@](C)([C@@H]1OC)n1c3ccccc3c3c4c(c5c6ccccc6n2c5c31)C(=O)NC4` [staurosporine, reference compound]: in data set [6], the “effect on RS4-11 cell growth” value is reported as “inhibits RS4-11 cell growth”. Besides, the “effect on AML193 cell growth” value in [7] is recorded as “inhibits AML193 cell growth”.
With `CC(C)Oc1ccc2nc(Nc3ccccc3)cnc2c1.Cl`, the melting point is 205 to 210 °C (dec.).
`Cc1ccc(NC(=O)c2ccc(CN3CCN(C)CC3)cc2)cc1Nc1nccc(-c2cccnc2)n1` [Gleevec, imatinib mesylate]: in data set [8], the “estimated 1-year survival” value is reported as “under 35%” and the “major cytogenetic response rate” value was 16%. Moreover, the “incidence of disease progression” value in data set [9] is 50%.
The compound `COc1cc2ncc(NC3CCCCC3)nc2cc1N1CCOCC1` [Example 10, Cyclohexyl-(6-methoxy-7-morpholin-4-yl-quinoxalin-2-yl)-amine] showed a melting point of 194 to 196 °C.
Regarding `COc1cc2ncc(N[C@@H]3CC[C@@H](O)[C@H](C)C3)nc2cc1OC` (stereo in doubt) [GN271, (1R,2R,4R)-4-(6,7-dimethoxy-quinoxalin-2-ylamino)-2-methyl-cyclohexanol], in data set [1], the “resistance of organ-specific endothelial cells to Taxotere increased by pancreatic tumor-conditioned medium” value is “reversal of this increased resistance” and the “sensitivity of endothelial cells to cytotoxicity mediated by Taxotere” value is “increases sensitivity of endothelial cells to cytotoxicity mediated by Taxotere”. For the same compound, in data set [2], the survival rate result is recorded as “higher survival rate” and the “effect of the combination in cancer refractory to chemotherapy” value is “synergistic effect”. In data set [3], the “large infiltrating cells with mitotic figures in bone marrow” value is “reduced numbers of large infiltrating cells with mitotic figures”, the “CD45 positive cells in bone marrow” value was “reduced numbers of CD45 positive cells” and the survival entry is reported as “prolonged survival”.
